Assay results taken from the NIST ThermoML archive (doi:10.1021/acs.jced.5b00805).
Numbers after ± are expanded uncertainties.

Legend:
[1] = wn = mass fraction of the nth substance listed; conditions: 100 kPa, Liquid, Vibrating tube method
[2] = refractive index (Na D-line) (dimensionless); wn = mass fraction of the nth substance listed; conditions: 100 kPa, Liquid, Standard Abbe refractometry

SMILES	mass density ([1]; 288.15 K, w1 = 0.4413)	mass density ([1]; 308.15 K, w1 = 0.4664)	refractive index ([2]; 288.15 K, w1 = 0.4413)	refractive index ([2]; 308.15 K, w1 = 0.4664)	mass density ([1]; 288.15 K, w1 = 0.2601)	mass density ([1]; 308.15 K, w1 = 0.2537)	refractive index ([2]; 288.15 K, w1 = 0.2601)	refractive index ([2]; 308.15 K, w1 = 0.2537)
[Cl-].[Li+] [lithium chloride] + O	1287.19 ± 1.1 kg/m3	1301.11 ± 1.1 kg/m3	1.4394 ± 0.0004	1.4365 ± 0.0004				
O=S(=O)([O-])[O-].[Li+].[Li+] [lithium sulfate] + O					1236.43 ± 1 kg/m3	1226.22 ± 1 kg/m3	1.3845 ± 0.0004	1.3738 ± 0.0004
